Laboratory results reported in patent publication US20220000952A1, “METHOD PREPARING ANTRODIA CINNAMOMEA EXTRACT AND ANTRODIA CINNAMOMEA COMPOSITION, AND PHARMACEUTICAL COMPOSITION” (priority 2018, published 2022).

Test system: bone marrow inhibition of chemotherapeutic drug Cisplatin
Experiment: Efficacy test for improving the bone marrow inhibition of chemotherapeutic drug cisplatin in C57BL/6 immune normal mice
Format: in vivo
Conditions: cisplatin alone 20 mg/kg i.p. day 1
Procedure: The animals used in this study were C57B116 mice which were commercially available from Taiwan Experimental Animal Centers and six weeks old. The feeding temperature was controlled to be 25±2° C., the illumination time was 08: 00-20: 00, sufficient feed and drinking water were provided daily, and the padding was replaced twice a week.
The cisplatin (cis, 20 mg/kg) was administered by intraperitoneal injection on the first day. The Antrodia cinnamomea composition (400 mg/kg) was administered in a tube-teed manner on the 1st to 5th day, and the time of tube feeding on the first day was 4 hours after the chemotherapeutic drug was administered. The animal groups were the control group,Cis and Antrodia cinnamomea compositions (AC) respectively, with 6 mice in each group and 18 mice in 3 groups.
The experimental animals were sacrificed in a CO2 manner on the sixth day, the thigh bones of the mice were surgically removed, both ends of the bones were cut, bone marrow cells were flushed out, and after centrifugation and washing, the cells were added to MethoCult M3334 medium or MethoCult M3234 medium, and allowed to stand in a humidified incubator containing 5% CO2 at 37° C. and cultured, the former was cultured for 48 hours to observe by microscope and calculate the number of CFU-E (Colony-forming unit-erythroid) colonies, and the latter was cultured for 7 days to observe by microscope and calculate the number of CFU-GM(Colony-forming unit-granulocyte, macrophage) colonies. The colony numbers of CFU-E and CFU-GM were counted by observation in the whole field of view.
Before the experimental animals were sacrificed, the whole blood was collected in a cheek blood collection manner, and anticoagulant whole blood was used for complete blood count (CBC) to determine the number of peripheral white blood cells.
One-way analysis of variance (One-Way ANOVA) was used for data analysis. When the analysis result reached a significant level, Fisher LSD was used for subsequent comparison.

N.N.[Cl][Pt][Cl] [cisplatin] was tested, and the “number of white blood cells (peripheral blood)” value (FIG. 5) was “can reduce the number of white blood cells”, the “number of CFU-GM (myeloid leukocyte precursor cells)” value (FIG. 6) was “inhibits the number of myeloid leukocyte precursor cells CFU-GM” and the “number of CFU-E (bone marrow red blood cell precursor cells)” value (FIG. 7) was “can inhibit the number of bone marrow red blood cell precursor cells CFU-E”.
